# Columns and labels:
# Test in all cases: Broth microdilution MIC in iron-depleted CAMHB (IDM)
# Assay type in all cases: cell-based
# [1] = tested on: A. baumannii CDC-0033 producing NDM-1, and OXA-94; conditions: Acinetobacter baumannii, read-out: Minimum Inhibitory Concentration, CDC-0033
# In short: (§1)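 MIC read by eye as the lowest concentration with no bacterial growth, following CLSI microdilution in iron-depleted cation-adjusted Mueller-Hinton broth at pH 7.3. Starting inoculum 2-8×10^5 CFU/mL; incubation 37° C, 16-20 h for Pseudomonas, 20-24 h for Acinetobacter.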
# [2] = tested on: P. aeruginosa CDC-0054 producing VIM-4, OXA-50, and PAO; conditions: Pseudomonas aeruginosa, read-out: Minimum Inhibitory Concentration, P. aeruginosa CDC-0054
# In short: as §1
# [3] = tested on: A. baumannii CDC-0036 OXA-65, and OXA-24; conditions: Acinetobacter baumannii, read-out: Minimum Inhibitory Concentration, CDC-0036
# In short: as §1
# A. baumannii ATCC 17978 = conditions: Acinetobacter baumannii, ATCC17978, read-out: Minimum Inhibitory Concentration, ATCC 17978
# In short: as §1
# P. aeruginosa ATCC 35151 = conditions: Pseudomonas aeruginosa, ATCC35151; iron-depleted MHB (IDM); hyper-permeable strain; read-out: Minimum Inhibitory Concentration, P. aeruginosa ATCC 35151
# In short: as §1
# [4] = tested on: P. aeruginosa (ΔmexAB-oprM); conditions: Pseudomonas aeruginosa, read-out: Minimum Inhibitory Concentration, P. aeruginosa ΔmexAB-OprM
# In short: as §1
# [5] = tested on: P. aeruginosa CDC-0090 producing KPC-5, OXA-50, and PAO; conditions: Pseudomonas aeruginosa, read-out: Minimum Inhibitory Concentration, P. aeruginosa CDC-0090
# In short: as §1
# [6] = tested on: P. aeruginosa CDC-0095 producing OXA-50, and PAO; conditions: Pseudomonas aeruginosa, read-out: Minimum Inhibitory Concentration, P. aeruginosa CDC-0095
# In short: as §1
# P. aeruginosa ATCC 27853 = conditions: Pseudomonas aeruginosa, ATCC27853, read-out: Minimum Inhibitory Concentration, P. aeruginosa ATCC 27853
# In short: as §1
# P. aeruginosa CDC-0110 = conditions: Pseudomonas aeruginosa, CDC0110, read-out: Minimum Inhibitory Concentration, P. aeruginosa CDC-0110
# In short: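 CLSI broth microdilution in iron-depleted cation-adjusted Mueller Hinton broth (Chelex-treated, Ca, Mg, Zn restored, pH 7.3), inoculum 2-8×10^5 CFU/mL, 2-fold compound dilutions. Pseudomonas plates incubated 16-20 h at 37 °C; MIC read visually as lowest concentration without growth.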
Compound,MIC [1],MIC [2],MIC [3],MIC (A. baumannii ATCC 17978),MIC (P. aeruginosa ATCC 35151),MIC [4],MIC [5],MIC [6],MIC (P. aeruginosa ATCC 27853),MIC (P. aeruginosa CDC-0110)
"CCN1CCN(C(=O)N[C@H](C(=O)N[C@H]2Cc3ccc(F)c(C(=O)O)c3OB2O)c2ccc(O)c(O)c2)C(=O)C1=O [Example 210, (R)-3-((S)-2-(3,4-dihydroxyphenyl)-2-(4-ethyl-2,3-dioxopiperazine-1-carboxamido)acetamido)-7-fluoro-2-hydroxy-3,4-dihydro-2H-benzo[e][1,2]oxaborinine-8-carboxylic acid]",> 128 µg/mL,> 128 µg/mL,> 128 µg/mL,> 128 µg/mL,2 to 4 µg/mL,8 to 16 µg/mL,> 128 µg/mL,> 128 µg/mL,> 128 µg/mL,> 128 µg/mL
"CCN1CCN(C(=O)N[C@@H](C(=O)N[C@H]2Cc3ccc(F)c(C(=O)O)c3OB2O)c2ccc(O)c(O)c2)C(=O)C1=O [Example 211, (R)-3-((R)-2-(3,4-dihydroxyphenyl)-2-(4-ethyl-2,3-dioxopiperazine-1-carboxamido)acetamido)-7-fluoro-2-hydroxy-3,4-dihydro-2H-benzo[e][1,2]oxaborinine-8-carboxylic acid]",32 to 64 µg/mL,8 to 16 µg/mL,8 to 16 µg/mL,2 to 4 µg/mL,0.25 µg/mL,0.25 µg/mL,8 to 16 µg/mL,8 to 16 µg/mL,8 to 16 µg/mL,2 to 4 µg/mL

# From patent publication US20230114728A1 (Venatorx Pharmaceuticals, Inc., priority 2019, published 2023)
